Source: US10363239B2, “Method for inhibiting growth of cancer cells” (Pain Therapeutics, Inc., priority 2013, dated 2019)
Like-named read-outs stand apart in the source and are kept apart here.

Key:
[1] = target: FLNA pentapeptide of SEQ ID NO: 1 (Bn-VAKGL) (Homo sapiens, UniProt P21333); test: FITC-NLX-based FLNA screening assay (inhibition of FITC-naloxone binding to Bn-VAKGL on streptavidin plates); settings: for inhibition at 0.01 µM / inhibition at 0.1 µM / inhibition at 1 µM: 10 nM FITC-NLX
mu opiate receptor (MOR) = test: MOR agonist activity using [35S]GTPγS binding assay in striatal membranes; format: biochemical; settings: for % DAMGO (0.1 μM) / % DAMGO (1 μM): relative to DAMGO; for % DAMGO + BFNA: 1 μM compound + β-FNA, relative to DAMGO + BFNA
Protocol: To assess the mu opiate receptor (MOR) agonist activity of positive compounds from the FLNA screening, compounds were tested in a [^35S]GTPγS binding assay using striatal membranes. […] This assay measures a functional consequence of receptor occupancy at one of the earliest receptor-mediated events. The assay permits traditional pharmacological parameters of potency, efficacy and antagonist affinity, with the advantage that agonist measures are not subjected to amplification or other modulation that may occur when analyzing parameters further downstream of the receptor.
Thus, striatal tissue was homogenized in 10 volumes of ice cold 25 mM HEPES buffer, pH 7.4, which contained 1 mM EGTA, 100 mM sucrose, 50 μg/ml leupeptin, 0.04 mM PMSF, 2 μg/ml soybean trypsin inhibitor and 0.2% 2-mercaptoethanol. The homogenates were centrifuged at 800×g for 5 minutes and the supernatants were centrifuged at 49,000×g for 20 minutes. The resulting pellets were suspended in 10 volume of reaction buffer, which contained 25 mM HEPES, pH 7.5, 100 mM NaCl, 50 μg/ml leupeptin, 2 μg/ml soybean trypsin inhibitor, 0.04 mM PMSF and 0.02% […].
The resultant striatal membrane preparation (200 μg) was admixed and maintained (incubated) at 30° C. for 5 minutes in reaction buffer as above that additionally contained 1 mM MgCl2 and 0.5 nM [^35S]GTPγS (0.1 μCi/assay, PerkinElmer Life and Analytical Sciences) in a total volume of 250 μl and continued for 5 minutes in the absence or presence of 0.1-10 μM of an assayed compound of interest. The reaction was terminated by dilution with 750 μl of ice-cold reaction buffer that contained 20 mM MgCl2 and 1 mM EGTA and immediate centrifugation at 16,000×g for 5 minutes.
The resulting pellet was solubilized by sonicating for 10 seconds in 0.5 ml of immunoprecipitation buffer containing 0.5% digitonin, 0.2% sodium cholate and 0.5% NP-40. Normal rabbit serum (1 μl) was added to 1 ml of lysate and incubated at 25° C. for 30 minutes. Nonspecific immune complexes were removed by incubation with 25 μl of protein A/G-conjugated agarose beads at 25° C. for 30 minutes followed by centrifugation at 5,000×g at 4° C. for 5 minutes. The supernatant was divided and separately incubated at 25° C. for 30 minutes with antibodies raised against Gαo proteins (1:1,000 dilutions).
The immunocomplexes so formed were collected by incubation at 25° C. for 30 minutes with 40 μl of agarose-conjugated protein A/G beads and centrifugation at 5,000×g at 4° C. for 5 minutes. The pellet was washed and suspended in buffer containing 50 mM Tris-HCl, pH 8.0, and 1% NP-40. The radioactivity in the suspension was determined by liquid scintillation spectrometry.

[2] = FLNA-binding compound 0.01 μM, read-out: Percent Binding Inhibition
[3] = FLNA-binding compound 0.1 μM, read-out: Percent Binding Inhibition
[4] = FLNA-binding compound 1 μM, read-out: Percent Binding Inhibition
[5] = Series C-2, 0.1 μM compound, [35S]GTPγS binding to Gαo, striatal membranes
[6] = Series C-2, 1 μM compound + 1 μM β-FNA
[7] = Series C-2, 1 μM compound, [35S]GTPγS binding to Gαo, striatal membranes
[8] = Series C-1, 0.1 μM compound, [35S]GTPγS binding to Gαo, striatal membranes
[9] = Series C-1, 1 μM compound + 1 μM β-FNA
[10] = Series C-1, 1 μM compound, [35S]GTPγS binding to Gαo, striatal membranes

O=C1CNC2(CCN(S(=O)(=O)c3ccc(O)cc3)CC2)N1Cc1ccccc1 [Compound C0148M]
inhibition at 0.01 µM [1, 2]: 46.2% | inhibition at 0.1 µM [1, 3]: 52% | inhibition at 1 µM [1, 4]: 57%

COc1c2c(cc3c1C(CC(=O)CCc1ccccc1)[N+](C)(C)CC3)OCO2 (stereo not drawn) [Compound B0015]
inhibition at 0.01 µM ([1]; read-out: Percent Binding Inhibition, FLNA-binding compound 0.01 μM): 30.4% | inhibition at 0.1 µM ([1]; read-out: Percent Binding Inhibition, FLNA-binding compound 0.1 μM): 35.3% | inhibition at 1 µM ([1]; read-out: Percent Binding Inhibition, FLNA-binding compound 1 μM): 42.3%

CN1CC[C@]23c4c5ccc(O)c4O[C@H]2[C@@H](O)C=C[C@H]3[C@H]1C5 [morphine, reference compound]
Inhibition of 10 nM FITC-conjugated NLX binding to biotinylated FLNA pentapeptide (FIG. 28) ([1]; 10 μM): minimal binding inhibition

COc1ccc(S(=O)(=O)N2CCOC23CCCNC3)cc1 (stereo not drawn) [Compound C0145M-3]
% DAMGO (0.1 μM) (mu opiate receptor (MOR); Series C-2, 0.1 μM compound): 112.2% | MOR agonist activity, percent [35S]GTPγS binding at the stated compound concentration (mu opiate receptor (MOR); [5]): 193.0% | MOR agonist activity, percent [35S]GTPγS binding at the stated compound concentration (mu opiate receptor (MOR); [6]): 87.0% | % DAMGO + BFNA (mu opiate receptor (MOR); Series C-2): 95.3% | % DAMGO (1 μM) (mu opiate receptor (MOR); Series C-2, 1 μM compound): 88.7% | MOR agonist activity, percent [35S]GTPγS binding at the stated compound concentration (mu opiate receptor (MOR); [7]): 289.2%

O=C1CN(Cc2ccccc2)C2(CCN(S(=O)(=O)c3cc(Cl)cc(Cl)c3O)CC2)N1 [Compound C0138M]
% DAMGO (0.1 μM) (mu opiate receptor (MOR); Series C-1, 0.1 μM compound): 86.3% | Concentration of FLNA-Binding Compound as Agonist 0.1 μM (mu opiate receptor (MOR); [8]): 126.9% | Concentration of FLNA-Binding Compound as Agonist 1 μM + BFNA (mu opiate receptor (MOR); [9]): 51.5% | % DAMGO + BFNA (mu opiate receptor (MOR); Series C-1): 131.0% | % DAMGO (1 μM) (mu opiate receptor (MOR); Series C-1, 1 μM compound): 90.9% | Concentration of FLNA-Binding Compound as Agonist 1 μM (mu opiate receptor (MOR); [10]): 183.9%

O=C1CC[C@@]2(O)[C@H]3Cc4ccc(O)c5c4[C@@]2(CCN3CC2CC2)[C@H]1O5 [NTX, naltrexone, reference compound]
Inhibition of 10 nM FITC-conjugated NLX binding to biotinylated FLNA pentapeptide (FIG. 28) ([1]; 1 μM): inhibit well

C=CCN1CC[C@]23c4c5ccc(O)c4O[C@H]2C(=O)CC[C@@]3(O)[C@H]1C5 [NLX, naloxone, reference compound]
Inhibition of 10 nM FITC-conjugated NLX binding to biotinylated FLNA pentapeptide (FIG. 28) ([1]; 1 μM): inhibit well

CC(=O)c1ccc(S(=O)(=O)N2CCC3(CC2)NCCO3)cc1 [Compound C0055]
inhibition at 0.01 µM [1, 2]: 29% | inhibition at 0.1 µM [1, 3]: 34.9% | inhibition at 1 µM [1, 4]: 39.5%

COc1ccc(CN2CCC3(CC2)OCCN3S(=O)(=O)c2ccc(OC)cc2)cc1 [Compound C0038]
inhibition at 0.01 µM [1, 2]: 31.7% | inhibition at 0.1 µM [1, 3]: 36% | inhibition at 1 µM [1, 4]: 43.5%

C[C@@H](NC(=O)[C@@H](N)Cc1ccc(O)cc1)C(=O)NCC(=O)N(C)[C@@H](Cc1ccccc1)C(=O)NCCO [DAMGO, [D-Ala2, N-MePhe4, Gly-ol]-enkephalin, reference compound]
MOR agonist activity, FLNA-Binding Compound as Agonist 0.1 μM (preliminary study) (mu opiate receptor (MOR); 0.1 μM, average of two runs): 144.7% | MOR agonist activity, FLNA-Binding Compound as Agonist 1 μM + βNFA (preliminary study) (mu opiate receptor (MOR); 1 μM + βNFA, average of two runs): 56.8% | MOR agonist activity, FLNA-Binding Compound as Agonist 1 μM (preliminary study) (mu opiate receptor (MOR); 1 μM, average of two runs): 233.4% | % DAMGO (0.1 μM) (mu opiate receptor (MOR); Series C-1, 0.1 μM compound): 100% | Concentration of FLNA-Binding Compound as Agonist 0.1 μM (mu opiate receptor (MOR); [8]): 168.5% | Concentration of FLNA-Binding Compound as Agonist 1 μM + BFNA (mu opiate receptor (MOR); [9]): 53.2% | % DAMGO + BFNA (mu opiate receptor (MOR); Series C-1): 100% | % DAMGO (1 μM) (mu opiate receptor (MOR); Series C-1, 1 μM compound): 100% | Concentration of FLNA-Binding Compound as Agonist 1 μM (mu opiate receptor (MOR); [10]): 266.1% | % DAMGO (0.1 μM) (mu opiate receptor (MOR); Series C-2, 0.1 μM compound): 100% | Concentration of FLNA-Binding Compound as Agonist 0.1 μM (mu opiate receptor (MOR); [5]): 168.5% | Concentration of FLNA-Binding Compound as Agonist 1 μM + BFNA (mu opiate receptor (MOR); [6]): 53.2% | % DAMGO + BFNA (mu opiate receptor (MOR); Series C-2): 100% | % DAMGO (1 μM) (mu opiate receptor (MOR); Series C-2, 1 μM compound): 100% | Concentration of FLNA-Binding Compound as Agonist 1 μM (mu opiate receptor (MOR); [7]): 266.1%
